biological target: T1, recombinant GST-p110γ (human PI3Kγ, residues 38-1102) (Homo sapiens, UniProt P48736); test: PI3Kγ in vitro kinase assay (Scintillation Proximity Assay), transfer of terminal phosphate of ATP to phosphatidylinositol; assay type: biochemical; conditions: 12.5 μM ATP, 15 μg/ml phosphatidylinositol, 60 minutes at room temperature
T1 construct: Residues 38-1102 of human PI3Kγ are subcloned into the BamH1 and EcoR1 sites; made in house; host or cells: Sf9 (Spodoptera frugiperda) insect cells, baculovirus
Text: Baculovirus expressing different fragments of PI3Kγ fused to GST have been previously described by Stoyanova, S., Bulgarelli-Leva, G., Kirsch, C., Hanck, T., Klinger, R., Wetzker, R., Wymann, M. P. (1997) Lipid- and protein kinase activities of G protein-coupled PI 3-kinase g: structure-activity analysis and interactions with wortmannin. Biochem. J., 324:489. Residues 38-1102 of human PI3Kγ are subcloned into the BamH1 and EcoR1 sites of the transfer vector pAcG2T (Pharmingen) to create a GST-PI3Kγ lacking the first 37 residues of PI3Kγ. To express the recombinant protein, Sf9 (Spodoptera frugiperda 9) insect cells are routinely maintained at densities between 3×10^5 and 3×10^6 cells/ml in serum containing TNMFH medium (Sigma). Sf9 cells, at a density of 2×10^6 are infected with human GST-PI3KγΔ34 baculovirus at a multiplicity of infection (m.o.i.) of 1 for 72 hours. The infected cells are harvested by centrifugation at 1400 g for 4 minutes at 4° C. and the cell pellets are frozen at −80° C. Both Sf9 and Sf21 cells work equally well. Sf9 cells (1×10^9) are resuspended in 100 ml cold (4° C.) lysis buffer (50 mM Tris-HCl pH 7.5, 1% Triton X-100, 150 mM NaCl, 1 mM NaF, 2 mM DTT and protease inhibitors. Cells are incubated on ice for 30 minutes then centrifuged at 15000 g for 20 minutes at 4° C. Purification of the supernatant sample is carried out at 4° C. by affinity chromatography using SEPHAROSE™ agarose gel beads coupled to glutathione (from Amersham Pharmacia Biotech). A cell lysate/GST resin ratio of 50:1 is used. The GST resin is firstly pre-rinsed to remove ethanol preservative and then equilibrated with lysis buffer. Cell lysate (supernatant) is added (usually as 50 ml lysate to 1 ml GST resin in 50 ml tubes) and gently rotated on a mixer at 4° C. for 2-3 hours. The unbound flow through sample is collected by centrifugation at 1000 g for 5 minutes at 4° C. using a DENLEY™ centrifuge. The 1 ml GST resin containing bound material is transferred to a 15 ml FALCON™ centrifuge tube for subsequent washing and elution steps. Firstly a series of 3 cycles of washings (mixing by gentle inversion) is performed with 15 ml ice cold wash Buffer A (50 mM Tris-HCl pH 7.5, 1% Triton X-100, 2 mM DTT) interspersed with centrifugation at 1000 g for 5 minutes at 4° C. A final single wash step is performed with 15 ml ice cold wash Buffer B (50 mM Tris-HCl pH 7.5, 2 mM DTT) and then centrifuged at 1000 g for 5 minutes at 4° C. The washed GST resin is finally eluted with 4 cycles of 1 ml ice cold elution buffer (50 mM Tris-HCl pH 7.5, 10 mM reduced glutathione, 2 mM DTT, 150 mM NaCl, 1 mM NaF, 50% ethylene glycol and protease inhibitors) interspersed with centrifugation at 1000 g for 5 minutes at 4° C. Samples are aliquoted and stored at −20° C.
An in vitro kinase assay is established that measures the transfer of the terminal phosphate of adenosine triphosphate to phosphatidylinositol. The kinase reaction is performed in a white 96 well microtitre plate as a Scintillation Proximity Assay. Each well contains 10 μl test compound in 5% dimethylsulphoxide and 20 μl assay mix (40 mM Tris, 200 mM NaCl, 2 mM ethyleneglycol-aminoethyl-tetraacetic acid (EGTA), 15 μg/ml phosphatidylinositol, 12.5 μM adenosine triphosphate (ATP), 25 mM MgCl2, 0.1 μCi [^33P]ATP). The reaction is started by the addition of 20 μl of enzyme mix (40 mM Tris, 200 mM NaCl, 2 mM EGTA containing recombinant GST-p110γ). […]

T1 sequence (P48736 38-1102): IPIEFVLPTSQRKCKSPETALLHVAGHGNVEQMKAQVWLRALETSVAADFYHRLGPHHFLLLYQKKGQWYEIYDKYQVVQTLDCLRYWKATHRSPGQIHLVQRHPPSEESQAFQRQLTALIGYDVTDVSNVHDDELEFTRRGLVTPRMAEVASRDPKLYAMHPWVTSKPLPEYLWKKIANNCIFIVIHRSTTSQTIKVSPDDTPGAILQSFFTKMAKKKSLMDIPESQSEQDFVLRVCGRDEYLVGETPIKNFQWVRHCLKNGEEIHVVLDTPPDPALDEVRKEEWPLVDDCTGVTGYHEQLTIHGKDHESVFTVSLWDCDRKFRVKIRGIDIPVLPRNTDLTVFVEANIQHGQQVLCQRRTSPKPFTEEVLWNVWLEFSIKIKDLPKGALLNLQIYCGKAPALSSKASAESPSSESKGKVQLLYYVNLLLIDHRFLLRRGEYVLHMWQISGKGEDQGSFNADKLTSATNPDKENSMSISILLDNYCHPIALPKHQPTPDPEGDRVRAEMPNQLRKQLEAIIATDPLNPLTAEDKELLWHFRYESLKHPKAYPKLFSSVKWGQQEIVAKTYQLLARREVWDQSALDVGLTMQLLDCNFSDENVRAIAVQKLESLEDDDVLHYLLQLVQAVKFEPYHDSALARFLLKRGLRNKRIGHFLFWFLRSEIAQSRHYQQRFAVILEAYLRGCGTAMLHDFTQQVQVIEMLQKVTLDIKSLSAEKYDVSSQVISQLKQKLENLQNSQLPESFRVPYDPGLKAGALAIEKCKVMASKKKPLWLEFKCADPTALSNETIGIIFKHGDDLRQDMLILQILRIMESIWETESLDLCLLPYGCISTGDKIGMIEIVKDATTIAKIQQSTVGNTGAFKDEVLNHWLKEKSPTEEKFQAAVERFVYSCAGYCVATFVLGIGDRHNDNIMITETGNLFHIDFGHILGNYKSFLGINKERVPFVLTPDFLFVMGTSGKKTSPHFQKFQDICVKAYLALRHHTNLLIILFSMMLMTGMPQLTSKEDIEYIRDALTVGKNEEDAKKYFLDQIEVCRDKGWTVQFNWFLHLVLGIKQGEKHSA

| IC50 [µM] | Compound |
| --- | --- |
| 0.165 | Cc1nc(Nc2cnccn2)sc1-c1ccnc(-n2ccnc2)c1 [Example 6, [5-(2-Imidazol-1-yl-pyridin-4-yl)-4-methyl-thiazol-2-yl]-pyrazin-2-yl-amine] |
| 0.075 | Cc1nc(Nc2cnccn2)sc1-c1ccncc1 [Example 1, (4-Methyl-5-pyridin-4-yl-thiazol-2-yl)-pyrazin-2-yl-amine] |
| 0.127 | CCc1cnc(CCNC(=O)Nc2nc(C)c(-c3cc(C)nc(OC)n3)s2)o1 [Example 56, 1-[2-(5-Ethyl-oxazol-2-yl)-ethyl]-3-[5-(2-methoxy-6-methyl-pyrimidin-4-yl)-4-methyl-thiazol-2-yl]-urea] |
| 0.164 | Cc1nc(NC(=O)NCCC(=O)OC(C)(C)C)sc1-c1ccnc(C2CC2)n1 [Example 82, 3-{3-[5-(2-cyclopropyl-pyrimidin-4-yl)-4-methyl-thiazol-2-yl]-ureido}-propionic acid tert-butyl ester] |
| 0.106 | CCOC(=O)CCNC(=O)Nc1nc(C)c(-c2ccncc2)s1 [Example 17, 3-[3-(4-Methyl-5-pyridin-4-yl-thiazol-2-yl)-ureido]-propionic acid ethyl ester] |
| 0.005 | COCCNC(=O)Nc1nc(C)c(-c2ccnc(C(C)(C)C)n2)s1 [Example 108, 1-[5-(2-tert-butyl-pyrimidin-4-yl)-4-methyl-thiazol-2-yl]-3-(2-methoxy-ethyl)-urea] |
| 0.016 | 2-{3-[5-(2-methanesulfinyl-6-methyl-pyrimidin-4-yl)-4-methyl-thiazol-2-yl]-ureido}-N,N-dimethyl-acetamide [Example 67] |
| 0.008 | CCOCCNC(=O)Nc1nc(C)c(-c2ccnc(C(C)(C)C)n2)s1 [Example 120, 1-[5-(2-tert-butyl-pyrimidin-4-yl)-4-methyl-thiazol-2-yl]-3-(2-ethoxy-ethyl)-urea] |
| 0.073 | CCc1cnc(CCNC(=O)Nc2nc(C)c(-c3ccnc(Cl)c3)s2)o1 [Example 33, 1-[5-(2-chloro-pyridin-4-yl)-4-methyl-thiazol-2-yl]-3-[2-(5-ethyl-oxazol-2-yl)-ethyl]-urea] |
| 0.025 | Cc1nc(N)sc1-c1ccnc(C(C)(C)C)n1 [Example 91, 5-(2-tert-Butyl-pyrimidin-4-yl)-4-methyl-thiazol-2-ylamine] |
| 0.017 | CC(=O)Nc1nc(C)c(-c2ccnc(C3CC3)n2)s1 [Example 27, N-[5-(2-Cyclopropyl-pyrimidin-4-yl)-4-methyl-thiazol-2-yl]-acetamide] |
| 0.05 | Cc1nc(NC(=O)NCc2cccn2C)sc1-c1ccncc1 [Example 22, 1-(4-methyl-5-pyridin-4-yl-thiazol-2-yl)-3-(1-methyl-1H-pyrrol-2-ylmethyl)-urea] |
| 0.093 | Cc1nc(Nc2cc[nH]n2)sc1-c1ccnc(N2CCOCC2)c1 [Example 11, [4-Methyl-5-(2-morpholin-4-yl-pyridin-4-yl)-thiazol-2-yl]-(1H-pyrazol-3-yl)-amine] |
